{
  "source": "paper PMC8466420",
  "about": "“Inflammatory and Cytotoxic Activities of Abietane Terpenoids from Nepeta bracteata Benth” (Molecules, 2021)",
  "assay_type_in_all_cases": "cell-based",
  "key": {"RAW 264.7 macrophages": {"system": "RAW 264.7 macrophages", "test": "RAW 264.7 macrophage viability test (MTT)", "conditions": "compounds at 50 μM; for viability at 50 µM: Mus musculus, RAW264.7, 24 h, read-out: Cell Survival Rate (%) RAW 264.7 Macrophages", "protocol": "The MTT colorimetric method was used to detect the effect of compounds 1–10 on the viability of RAW 264.7 macrophages. The RAW 264. 7 macrophages in the logarithmic growth phase were digested with trypsin to prepare a single-cell suspension, which was seeded in a 96-well plate at a density of 1 × 10^4 cells per well and cultured in a 5% CO2 incubator for 24 h at 37 °C, before discarding the supernatant. The blank control group was cultured with 10% FBS-containing DMEM, and the drug group was treated with aqueous solutions of compounds 1–10, with six replicate wells for each concentration. Incubation was continued in 5% CO2 at 37 °C. After 24 h of incubation, 10 μL of 5 mg/mL MTT was added to each well. The culture solution was removed after culturing for 4 h. Then, 100 μL of DMSO was added to each well, before shaking for 10 min to achieve complete dissolution. The optical density (OD) was measured at 492 nm using a microplate reader to calculate cell viability."}, "[1]": {"system": "nitric oxide (NO) production in lipopolysaccharide (LPS)-stimulated RAW 264.7 cells", "test": "Anti-inflammation assay: inhibition of NO production in LPS-stimulated RAW 264.7 macrophages", "conditions": "means ± SD of triplicate experiments", "protocol": "The anti-inflammatory activity of the isolated compounds was evaluated in lipopolysaccharide-stimulated RAW 264.7 macrophages using the […]. The RAW 264.7 macrophages were seeded in 96-well plates at a density of 1 × 10^4 cells per well for 24 h, followed by treatment with different extracts of identical purity for another 24 h. The compounds were dissolved in dimethyl sulfoxide (DMSO) and diluted appropriately just before cell treatments. Cells were incubated with the extract at indicated concentrations, with DMSO not exceeding 0.1% in all experiments. The cells were cultured in DMEM with 10% FBS and antibiotics (100 U/mL penicillin and 100 µg/mL streptomycin) at 37 °C with 5% CO2. […]."}, "HCT-8 cells": {"system": "HCT-8 cells", "test": "Cytotoxicity test against HCT-8 cells (MTT)", "conditions": "24 h, means ± SD (n = 3), read-out: IC50 (μM) HCT-8 (cytotoxic activity)", "protocol": "(§1) The cytotoxic activities of compounds 1–10 against HCT-8 cells were tested using the MTT colorimetric method. HCT-8 cells were cultivated on DMEM medium at 37 °C and 5% CO2. After diluting the DMEM medium, cells were seeded into 96-well sterile microplates (6 × 10^4 cells/well) and cultured with a series of various concentrations of tested compounds or adriamycin (positive control) for 24 h at 37 °C. After incubation, all compounds were tested at five concentrations (10−100 μM) for 1 h. Following this, the supernatant was removed, and all components were dissolved in 100% DMSO, at such an amount that there was a final DMSO concentration of 0.1% added to each well. The absorbance was measured using a microplate reader at a wavelength of 570 nm. […] The cell growth assay was repeated three times, and the IC50 values were calculated using Microsoft Excel software."}, "[2]": {"test": "Cytotoxicity test against HCT-8 cells (MTT)", "conditions": "human, means ± SD (n = 3), read-out: IC50 (μM) HCT-8 (cytotoxic activity)", "protocol": "as §1"}, "[3]": {"conditions": "Mus musculus, RAW264.7, 24 h treatment"}},
  "data": [
    {"compound": "1-phenanthrenecarboxylic acid [Compound 8]", "values": [
      {"measurement": "Cell Survival Rate (%) RAW 264.7 Macrophages", "setting": "RAW 264.7 macrophages; 24 h", "value": "99.12 ± 0.28", "unit": "%"},
      {"measurement": "IC50", "setting": "[1]; 24 h treatment", "value": "37.5 ± 0.92", "unit": "µM"},
      {"measurement": "IC50", "setting": "HCT-8 cells", "value": "> 50", "unit": "µM"}
    ]},
    {"compound": "COc1cccc2c1C(=O)c1c(O)c3c(c(O)c1C2=O)C[C@@](O)(C(=O)CO)C[C@@H]3O[C@H]1C[C@H](N)[C@H](O)[C@H](C)O1", "note": "[Adriamycin, reference compound]", "values": [
      {"measurement": "IC50 at 24 h", "setting": "[2]", "value": "1.78 ± 0.14", "unit": "µM"}
    ]},
    {"compound": "CC(=O)Oc1ccccc1C(=O)O", "note": "[Aspirin, reference compound]", "values": [
      {"measurement": "IC50", "setting": "[1]; [3]", "value": "15.9 ± 0.38", "unit": "µM"}
    ]},
    {"compound": "CC(=O)O[C@H]1CCC(C)(C)[C@@H]2CCc3cc(C(C)C)ccc3[C@@]12CO", "note": "[Compound 1, nepetabrate A]", "values": [
      {"measurement": "viability at 50 µM", "setting": "RAW 264.7 macrophages", "value": "97.93 ± 0.26", "unit": "%"},
      {"measurement": "IC50", "setting": "[1]; [3]", "value": "38.2 ± 1.15", "unit": "µM"},
      {"measurement": "IC50 at 24 h", "setting": "[2]", "value": "> 50", "unit": "µM"}
    ]},
    {"compound": "CC(C)c1ccc2c(c1)[C@@H](O)C[C@H]1[C@@](C)(C=O)CCC[C@]21C", "note": "[Compound 2, nepetabrate B]", "values": [
      {"measurement": "viability at 50 µM", "setting": "RAW 264.7 macrophages", "value": "88.26 ± 0.32", "unit": "%"},
      {"measurement": "IC50", "setting": "[1]; [3]", "value": "19.2 ± 1.25", "unit": "µM"},
      {"measurement": "IC50 at 24 h", "setting": "[2]", "value": "36.3 ± 1.1", "unit": "µM"}
    ]},
    {"compound": "CC1=C(CO)[C@@H]2C[C@H](O)c3cc(C(C)C)ccc3[C@@]2(C)CC1", "note": "[Compound 3, nepetabrate C]", "values": [
      {"measurement": "viability at 50 µM", "setting": "RAW 264.7 macrophages", "value": "99.84 ± 0.21", "unit": "%"},
      {"measurement": "IC50", "setting": "[1]; [3]", "value": "22.3 ± 1.26", "unit": "µM"},
      {"measurement": "IC50 at 24 h", "setting": "[2]", "value": "> 50", "unit": "µM"}
    ]},
    {"compound": "C=C1[C@@H]2C[C@H](O)c3cc(C(C)C)ccc3[C@@]2(C)CC[C@@]1(C)O", "note": "[Compound 4, nepetabrate D]", "values": [
      {"measurement": "viability at 50 µM", "setting": "RAW 264.7 macrophages", "value": "92.21 ± 0.19", "unit": "%"},
      {"measurement": "IC50", "setting": "[1]; [3]", "value": "18.8 ± 0.75", "unit": "µM"},
      {"measurement": "IC50 at 24 h", "setting": "[2]", "value": "41.4 ± 0.91", "unit": "µM"}
    ]},
    {"compound": "CC1CC(=O)OCCNC1=O", "note": "(centres unmarked) [Compound 5, 6-methyl-1,4-oxazocane-5,8-dione]", "values": [
      {"measurement": "viability at 50 µM", "setting": "RAW 264.7 macrophages", "value": "99.21 ± 0.15", "unit": "%"},
      {"measurement": "IC50", "setting": "[1]; [3]", "value": "18 ± 1.13", "unit": "µM"},
      {"measurement": "IC50 at 24 h", "setting": "[2]", "value": "> 50", "unit": "µM"}
    ]},
    {"compound": "CC(C)(O)c1ccc2c(c1)CC[C@H]1[C@@](C)(C(=O)O)CCC[C@]21C", "note": "[Compound 6, angustanoic acid F]", "values": [
      {"measurement": "viability at 50 µM", "setting": "RAW 264.7 macrophages", "value": "99.89 ± 0.13", "unit": "%"},
      {"measurement": "IC50", "setting": "[1]; [3]", "value": "36.2 ± 1.21", "unit": "µM"},
      {"measurement": "IC50 at 24 h", "setting": "[2]", "value": "> 50", "unit": "µM"}
    ]},
    {"compound": "CC(C)c1ccc2c(c1)[C@@H](O)C[C@H]1[C@@](C)(C(=O)O)CCC[C@]21C", "note": "[Compound 7, 7a-hydroxycallitrisic acid]", "values": [
      {"measurement": "viability at 50 µM", "setting": "RAW 264.7 macrophages", "value": "98.75 ± 0.45", "unit": "%"},
      {"measurement": "IC50", "setting": "[1]; [3]", "value": "37.1 ± 0.81", "unit": "µM"},
      {"measurement": "IC50 at 24 h", "setting": "[2]", "value": "> 50", "unit": "µM"}
    ]},
    {"compound": "CC(=O)c1ccc2c(c1)CC[C@H]1[C@@](C)(C(=O)O)CCC[C@]21C", "note": "[Compound 9, angustanoic acid G]", "values": [
      {"measurement": "viability at 50 µM", "setting": "RAW 264.7 macrophages", "value": "98.26 ± 0.18", "unit": "%"},
      {"measurement": "IC50", "setting": "[1]; [3]", "value": "42.3 ± 0.56", "unit": "µM"},
      {"measurement": "IC50 at 24 h", "setting": "[2]", "value": "> 50", "unit": "µM"}
    ]},
    {"compound": "CC(C)c1ccc2c(c1)CC[C@@H]1[C@](C)(CCC[C@]1(C)C(=O)O)O2", "note": "[Compound 10, jiadifenoic acid K]", "values": [
      {"measurement": "viability at 50 µM", "setting": "RAW 264.7 macrophages", "value": "98.75 ± 0.2", "unit": "%"},
      {"measurement": "IC50", "setting": "[1]; [3]", "value": "46.3 ± 1.02", "unit": "µM"},
      {"measurement": "IC50 at 24 h", "setting": "[2]", "value": "> 50", "unit": "µM"}
    ]}
  ]
}
